{"source": "patent US20070004660A1", "about": "“Synergistic Modulation of Flt3 Kinase Using Alkylquinolines and Alkylquinazolines” (priority 2005, published 2007)", "key": {"MV4-11 AML cells": {"test_system": "MV4-11 AML cells", "experiment": "Cell proliferation assay, single agents and FTI/FLT3 inhibitor combinations, MV4-11", "assay_type": "cell-based, human", "method": "Dose responses for the individual compounds alone were determined for each cell line using a standard 72-hour cell proliferation assay (see FIGS. 6.1-6.8). The standard chemotherapeutic agent Cytarabine was used as a control cytotoxic agent in all experiments. […] The FLT3 inhibitors, Compounds A, B, C, D, E, F G and H individually have good potency (sub-micromolar) for the inhibition of FLT3 driven proliferation (compared to the first line cytotoxic agent Cytarabine and Tipifarnib) in cells that depend on FLT3 for growth. Each of these chemically distinct compounds alone has potential for the treatment of disorders related to FLT3, such as FLT3 positive AML. […] The FLT3 inhibitors tested had no effect on THP-1 proliferation. […] (See FIGS. 10.1-10.8 and Tables 1-3, hereafter.)\nTo statistically evaluate the synergy of a FLT3 inhibitor and an FTI in FLT3 dependent cell lines, dosing combinations were evaluated by the method of Chou and Talalay. See Chou T C, Talalay P. (1984) “Quantitative analysis of dose-effect relationships: the combined effects of multiple drugs or enzyme inhibitors.” Adv Enzyme Regul. 22:27-55. […] Using this method, multiple FTI and FLT3 combinations were evaluated. […]\nCell proliferation assay for MV4-11, Baf3-ITD, Baf3-FLT3 and THP-1 cells. […] Total cell growth is quantified as the difference in luminescent counts (relative light units, RLU) of cell number at Day 0 compared to total cell number at Day 3 (72 hours of growth and/or compound treatment). One hundred percent inhibition of growth is defined as an RLU equivalent to the Day 0 reading. […]\nCombination Index Analysis. To determine growth inhibition synergy of a FTI and FLT3 inhibitor combination based on the method of Chou and Talalay (Chou and Talalay. See Chou T C, Talalay P. (1984) “Quantitative analysis of dose-effect relationships: the combined effects of multiple drugs or enzyme inhibitors.” Adv Enzyme Regul. 22:27-55. ), fixed ratio combination dosing with isobolar statistical analysis was performed. […]"}, "Baf3-FLT3 cells": {"test_system": "Baf3-FLT3 cells", "experiment": "Cell proliferation assay, single agents and FTI/FLT3 inhibitor combinations, Baf3-FLT3", "assay_type": "cell-based, murine", "conditions": "with single sub-IC50 dose of FLT3 inhibitor Compound A, 100 nM", "method": "The cell lines that were tested included those that are dependent on FLT3ITD mutant activity for growth (MV4-11 and Baf3-FLT3ITD), FLT3wt activity for growth (Baf3FLT3) and those that grow independent of FLT3 activity (THP-1). […] Baf3-FLT3 and Baf3-FLT3ITD cell lines were obtained from Dr. Michael Henrich and the Oregon Health Sciences University. The Baf3 FLT3 cell lines were created by stable transfection of parental Baf3 cells (a murine B cell lymphoma line dependent on the cytokine IL-3 for growth) with either wild-type FLT3 or FLT3 containing the ITD insertion in the juxatamembrane domain of the receptor resulting in its constitutive activation. […]\nTo statistically evaluate the synergy of a FLT3 inhibitor and an FTI in FLT3 dependent cell lines, dosing combinations were evaluated by the method of Chou and Talalay. See Chou T C, Talalay P. (1984) “Quantitative analysis of dose-effect relationships: the combined effects of multiple drugs or enzyme inhibitors.” Adv Enzyme Regul. […] Using this method, multiple FTI and FLT3 combinations were evaluated. […]\nCell proliferation assay for MV4-11, Baf3-ITD, Baf3-FLT3 and THP-1 cells. […] Total cell growth is quantified as the difference in luminescent counts (relative light units, RLU) of cell number at Day 0 compared to total cell number at Day 3 (72 hours of growth and/or compound treatment). […]"}, "MV-4-11 tumor xenografts": {"test_system": "MV-4-11 tumor xenografts", "experiment": "In vivo combination study, FLT3 inhibitor Compound B and Tipifarnib, MV-4-11 xenografts", "method": "The effect of combination treatment of the FLT3 Inhibitor FLT3 inhibitors of Formula I′ and Tipifarnib (Zarnestra™) on the growth of MV-4-11 human AML tumor xenografts in nude mice was tested using FLT3 inhibitor Compound B. The in vivo study was designed to extend the in vitro observations to evaluate the potential for a synergistic anti-tumor effect of FLT3 inhibitor Compound B administered orally together with Tipifarnib to nude mice bearing established MV-4-11 tumor xenografts."}, "[1]": {"test_system": "patients with relapsed and refractory AML", "conditions": "cited from earlier work"}, "[2]": {"conditions": "multicenter Phase II trial, relapsed AML"}}}
{"smiles": "Cn1cncc1C(N)(c1ccc(Cl)cc1)c1ccc2c(c1)c(-c1cccc(Cl)c1)cc(=O)n2C", "note": "(single isomer, unassigned; (+)) [Tipifarnib, (+)-6-[amino(4-chlorophenyl)(1-methyl-1H-imidazol-5-yl)methyl]-4-(3-chlorophenyl)-1-methyl-2(1H)-quinolinone]", "values": [{"measurement": "potency for inhibition of proliferation, single agent", "setting": "MV4-11 AML cells; 72-hour assay, cells that depend on FLT3 for growth (Tipifarnib: depending on the cell type)", "result": "high nanomolar to high picomolar range"}, {"measurement": "increase in potency of Tipifarnib", "setting": "MV4-11 AML cells; with single sub-IC50 dose of FLT3 inhibitor Compound A, 50 nM", "result": "more than 3 fold"}, {"measurement": "increase in potency of Tipifarnib", "setting": "Baf3-FLT3 cells", "result": "more than 3 fold"}, {"measurement": "effect on tumor volume compared to control", "setting": "MV-4-11 tumor xenografts; 50 mg/kg po alone, Day 9", "result": "not significantly reduced"}, {"measurement": "overt toxicity", "setting": "MV-4-11 tumor xenografts; 9-day treatment, either agent alone or in combination", "result": "No overt toxicity"}, {"measurement": ">50% reduction in bone marrow blasts", "setting": "[1]; [2]", "result": "31 of 50"}, {"measurement": "complete responses (bone marrow blasts <5%)", "setting": "[1]; [2]", "result": "17 of 50"}, {"measurement": "response rate", "setting": "[1]; patients with relapsed and refractory AML", "result": "~30", "unit": "%"}]}
